Test in all cases: growth of human tumour cells (NCI), 48 h
Test [1] relates to SK-MEL-28 melanoma.
Test [2] has as its system M14 melanoma.
In test [3] the test system is HCT-15 colon.
Test [4] has as its system SNB-75 CNS.
Test [5] deals with HCT-116 colon.
The test system of test [6] is U251 CNS.
The subject of test [7] is NCI-H460 lung.
In test [8] the test system is UO-31 renal.
In test [9] the test system is SNB-19 CNS.
In test [10] the test system is MCF7 breast.

“And” between values parts separate entries of the source, which are not always exact repeats. Identical values can stand only once.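 How tested: cells in 96-well plates exposed to compound for 48 hours at five concentrations. GI50: concentration for 50% inhibition of growth. TGI marks complete inhibition of growth.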 Some results are limits rather than exact numbers.

For the compound `NC(=O)Nc1cc(-c2cccc(F)c2)sc1C(=O)N[C@H]1CCCNC1`, the GI50 in test [1] is 2.95 µM and 3.53 µM; in [2] it was 0.031 µM and 0.102 µM; in [3], 1.3 µM and 1.96 µM; in test [4] it was 0.0316 µM and 0.102 µM; in test [5] it was 0.327 µM and 0.428 µM; in [6] it was 0.354 µM and 0.526 µM. The GI50 in test [7] was 0.207 µM and 0.467 µM; in test [8] it was 0.213 µM and 0.304 µM; in [9], 0.562 µM and 0.54 µM; in [10] it was 0.0285 µM and 0.144 µM. Also, the TGI is > 10 µM and 16.9 µM in test [1]; 0.476 µM and 0.525 µM in [2]; > 7.18 µM and 10.7 µM in test [3]; 1.01 µM and 1.07 µM in test [4]; 6.14 µM and 2.85 µM in test [5]; > 4.59 µM and 2.53 µM in test [6]. Also, the TGI in [7] is 3.32 µM and 4.22 µM; in test [8], 1.79 µM and 1.29 µM; in test [9], > 5.85 µM and 6.88 µM; in test [10] it was > 10 µM and 13.6 µM.

In the case of `C[C@]12CC[C@@H]3c4ccc(O)cc4CC[C@H]3[C@@H]1Cc1cnc(N)nc12`, the GI50 in test [1] was 10.7 µM; in [2], 18.2 µM; in [3], 16.5 µM; in test [4], 16.5 µM; in test [5], 23.6 µM; in [6], 17.9 µM. Also, the GI50 was 9.95 µM in test [7], 19 µM in [8], 14.4 µM in [9] and 18.8 µM in test [10]. In addition, the TGI in [1] came to 26.1 µM; in test [2] it was 36.4 µM; in [3], 39.1 µM; in test [4] it was 42.9 µM; in test [5], 69.2 µM; in test [6], 41.6 µM. Further, the TGI in test [7] was determined as 24.9 µM; in test [8], 43.7 µM; in test [9], 43 µM; in [10], 47.7 µM.

As for `CN(C)CC1CCC2=C(C1=O)C(c1ccc(Cl)c(Cl)c1)C1=C(CCC(CN(C)C)C1=O)O2` (stereo not given), the GI50 in test [1] is 17.6 µM; in test [2], 9.35 µM; in [3] it was 8.75 µM; in test [4] it was 12.4 µM; in [5], 10.4 µM; in test [6], 11.7 µM. Further, the GI50 in test [7] is 10.3 µM; in test [8] it was 2.78 µM; in [9] it was 16 µM; in test [10], 1.26 µM. The TGI in test [1] was found to be 34.6 µM; in test [2], 23.4 µM; in [3], 29.2 µM; in [4], 25.8 µM; in test [5] it was 23.4 µM; in test [6], 23.9 µM. The TGI stood at 24.6 µM in [7], 7.17 µM in test [8], 29.7 µM in [9] and 3.27 µM in test [10].

As for `C#CCNCCN1C(=O)c2ccc3c4c(ccc(c24)C1=O)C(=O)N(CCNCC#C)C3=O`, the GI50 was 10.4 µM in [1]; 5.52 µM in [2]; 2.95 µM in test [3]; 5.95 µM in [4]; 1.75 µM in [5]; 3.3 µM in [6]. Besides, the GI50 is 1.86 µM in [7], 3.09 µM in test [8], 3.56 µM in test [9] and 2.67 µM in test [10]. In addition, the TGI in test [1] came out at 27.6 µM; in test [2], 12.6 µM; in test [3], 10.6 µM; in test [4], 14.5 µM; in test [5] it was 11.1 µM; in test [6] it was 10.9 µM. For the same compound, the TGI in [7] was 9.68 µM; in [8] it was 12.3 µM; in [9] it was 10.6 µM; in test [10] it was 13.4 µM.

On to `O=C1NOC(c2ccc(O)cc2)(c2ccc(O)cc2)c2ccccc21`, for which the GI50 in [1], in test [2], in test [3], in [4], in [5] and in test [6] was over 100 µM each time. The GI50 in test [7], in test [8], in [9] and in [10] was over 100 µM in each case. In addition, the TGI in test [1], in [2], in test [3], in [4], in test [5] and in [6] was over 100 µM throughout. The TGI in [7], in test [8], in [9] and in [10] was over 100 µM each time.

In the case of `Cc1ccc(-c2csc(NC(=O)N3CCN(c4cc5c(cc4F)c(=O)c(C(=O)O)cn5C4CC4)CC3)n2)cc1`, the GI50 in [1] is 0.494 µM; in test [2] it was 1.2 µM; in test [3] it was 0.417 µM; in test [4], 0.289 µM; in test [5], 0.335 µM; in test [6] it was 0.392 µM. Besides, the GI50 is 0.355 µM in [7], 0.36 µM in test [8], 0.398 µM in test [9] and 0.49 µM in test [10]. The TGI was over 100 µM in test [1]; over 100 µM in test [2]; over 100 µM in test [3]; 9.55 µM in [4]; over 100 µM in test [5]; 14.8 µM in [6]. For the same compound, the TGI in test [7], in test [8], in test [9] and in [10] was over 100 µM throughout.

On to `Cc1cn2c(/C=C3/C(=O)Nc4ccc(O)cc43)c(C)nc2s1`, for which the GI50 in test [1] is 8.44 µM; in test [2], 2.29 µM; in [3] it was 3.78 µM; in test [4], 4.61 µM; in test [5] it was 1.22 µM; in test [6], 3.06 µM. Moreover, the GI50 is 2.56 µM in test [7], 26.5 µM in test [8], 5.47 µM in test [9] and 1.6 µM in test [10]. For the same compound, the TGI in test [1] is over 100 µM; in test [2], over 39.1 µM; in test [3], over 58.5 µM; in test [4], over 100 µM; in test [5], over 45.5 µM; in test [6] it was 35.7 µM. The TGI is 14.5 µM in test [7], over 100 µM in test [8], over 100 µM in [9] and over 33.6 µM in test [10].

`Cc1nn(C)c(COc2ccc(N3CCN(S(=O)(=O)N(C)C)CC3)cc2)c1-c1cccc2c(CCCOc3cccc4ccccc34)c(C(=O)O)n(CCN3CCOCC3)c12`: the GI50 in test [1] was 2.07 µM; in test [2] it was 2.28 µM; in [3] it was 7.62 µM; in test [4], 2.11 µM; in [5], 3.08 µM; in test [6], 3.13 µM. For the same compound, the GI50 in [7] is 3.17 µM; in test [8], 6.13 µM; in test [9], 3.63 µM; in [10] it was 2.84 µM. Moreover, the TGI in [1] came out at 4.87 µM; in test [2] it was 5.32 µM; in test [3], 22.9 µM; in test [4], 10.5 µM; in [5] it was 15 µM; in test [6] it was 11.5 µM. For the same compound, the TGI in test [7] was 11.1 µM; in [8], 20.3 µM; in [9], 23.4 µM; in [10], 11 µM.

These data come from PubChem BioAssay (NCI).
